Data on one molecule can be found in patent US10265326B2, “Form C of avibactam sodium” (Sandoz AG, priority 2015, dated 2019).

Entries after “also recorded” stand apart in the source; their conditions may differ.

Data set [1] in a line: Stress tests: open storage at room temperature over saturated salt solutions at different relative humidities, analysis by PXRD. Format: physicochemical. Particulars: for physical form found by PXRD after stress test: open storage. The method, then:
Powder X-ray diffraction (PXRD) was performed with a PANalytical X'Pert PRO diffractometer equipped with a theta/theta coupled goniometer in transmission geometry, Cu-Kalpha1,2 radiation (wavelength 0.15419 nm) with a focusing mirror and a solid state PIXcel detector. Diffractograms were recorded at a tube voltage of 45 kV and a tube current of 40 mA, applying a stepsize of 0.013° 2-Theta with 40 s per step (255 channels) in the angular range of 2° to 40° 2-Theta at ambient conditions. A typical precision of the 2-Theta values is in the range of ±0.2° 2-Theta. Thus, the diffraction peak of substantially pure form C that appears for example at 6.5° 2-Theta can appear between 6.3 and 6.7° 2-Theta on most X-ray diffractometers under standard conditions.
Crystalline form C (prepared according to example 1 herein) was open stored at room temperature in desiccators over saturated salt solutions generating different relative humidities.

Data set [2] in a line: Gravimetric moisture sorption. In kind it is physicochemical. The settings on record: relative humidity 0 to 60%, (25.0±0.1) °C. The method, then: Moisture sorption isotherms were recorded with an SPSx-1μ moisture sorption analyzer (ProUmid, Ulm). The measurement cycle was started at ambient relative humidity (RH) of 30% and first decreased to 3% RH and then to 0% RH. […] The time per step was set to a minimum of 2 hours and a maximum of 6 hours. If an equilibrium condition with a constant mass of ±0.01% within 1 hour was reached before the maximum time for all examined samples the sequential humidity step was applied before the maximum time of 6 hours. If no equilibrium was achieved the consecutive humidity step was applied after the maximum time of 6 hours. The temperature was 25±0.1° C.

Take `NC(=O)[C@@H]1CC[C@@H]2CN1C(=O)N2OS(=O)(=O)O.[Na]` [form C, sodium salt of (1R,2S,5R)-7-oxo-6-sulfooxy-1,6-diazabicyclo[3.2.1]octane-2-carboxamide]: the “relative humidity at or below which no transformation into any other physical form occurs” value in data set [1] was at most 55%. The “physical form found by PXRD after stress test” value in data set [1] (45% relative humidity (K2CO3), 9 days) was “substantially pure form C after 9 days and after”; in data set [1] (45% relative humidity (K2CO3), 277 days), “remains stable; also recorded: substantially pure form C after 9 days and after”; in data set [1] (55% relative humidity (Ca(NO3)2 x 4H2O), 9 days), “remains stable; also recorded: substantially pure form C after 9 days”; in data set [1] (63% relative humidity (NaBr), 3 days), “traces of form A detectable after 3 days”; in data set [1] (75% relative humidity (NaCl), 3 days), “mainly form A with traces of form C after”; in data set [1] (86% relative humidity (KCl), one day) it was “form A after one day”. Further, the “weight change, based on the weight of crystalline form C” value in data set [2] was “not more than 0.5%”.
